Data from the NIST ThermoML archive (doi:10.1016/j.jct.2006.02.001).
Where “and” joins values, the source holds several entries; their conditions need not be identical. Identical values can stand only once. ± gives the expanded uncertainty stated by the source.

How the values were obtained:
[1] = 101 kPa, Liquid
[2] = refractive index (Na D-line) (dimensionless); settings: 101.33 kPa, Liquid
[3] = refractive index (Na D-line) (dimensionless); xn = mol fraction of the nth substance listed; settings: 101 kPa, Liquid
[4] = xn = mol fraction of the nth substance listed; settings: 101 kPa, Liquid

Cc1ccccc1C [1,2-dimethylbenzene]
Settings	mass density, 288.15 K [kg/m3]	mass density, 293.15 K [kg/m3]	mass density, 298.15 K [kg/m3]	mass density, 303.15 K [kg/m3]	refractive index, 288.15 K	refractive index, 293.15 K	refractive index, 298.15 K	refractive index, 303.15 K
[1]	883.29 ± 0.91	879.08 ± 0.92	875.53 ± 0.94	870.73 ± 0.95	–	–	–	–
[2]	–	–	–	–	1.5072 ± 0.0096	1.5047 ± 0.0096	1.5018 ± 0.0096	1.5 ± 0.0096

Cc1cc(C)cc(C)c1 [1,3,5-trimethylbenzene]
Settings	mass density, 288.15 K [kg/m3]	mass density, 293.15 K [kg/m3]	mass density, 298.15 K [kg/m3]	mass density, 303.15 K [kg/m3]	refractive index, 288.15 K	refractive index, 293.15 K	refractive index, 298.15 K	refractive index, 303.15 K
[1]	869.17 ± 0.97	865.07 ± 0.98	861.06 ± 1	856.95 ± 1	–	–	–	–
[2]	–	–	–	–	1.5045 ± 0.0097	1.4993 ± 0.0096	1.4976 ± 0.0096	1.4948 ± 0.0096

Cc1cccc(C)c1 [1,3-dimethylbenzene]
Settings	mass density, 288.15 K [kg/m3]	mass density, 293.15 K [kg/m3]	mass density, 298.15 K [kg/m3]	mass density, 303.15 K [kg/m3]	refractive index, 288.15 K	refractive index, 293.15 K	refractive index, 298.15 K	refractive index, 303.15 K
[1]	868.32 ± 0.89	864.05 ± 0.91	859.77 ± 0.93	855.47 ± 0.95	–	–	–	–
[2]	–	–	–	–	1.4997 ± 0.0096	1.4973 ± 0.0096	1.4944 ± 0.0096	1.4925 ± 0.0096

Cc1ccc(C)cc1 [1,4-dimethylbenzene]
Settings	mass density, 288.15 K [kg/m3]	mass density, 293.15 K [kg/m3]	mass density, 298.15 K [kg/m3]	mass density, 303.15 K [kg/m3]	refractive index, 288.15 K	refractive index, 293.15 K	refractive index, 298.15 K	refractive index, 303.15 K
[1]	865.25 ± 0.91	860.92 ± 0.93	856.62 ± 0.94	852.25 ± 0.96	–	–	–	–
[2]	–	–	–	–	1.4983 ± 0.0096	1.4958 ± 0.0096	1.4929 ± 0.0096	1.4915 ± 0.0096

COc1ccccc1 [anisole]
Settings	mass density, 288.15 K [kg/m3]	mass density, 293.15 K [kg/m3]	mass density, 298.15 K [kg/m3]	mass density, 303.15 K [kg/m3]	refractive index, 288.15 K	refractive index, 293.15 K	refractive index, 298.15 K	refractive index, 303.15 K
[1]	998.44 ± 1.4	993.65 ± 1.5	989.15 ± 1.6	984.37 ± 1.6	–	–	–	–
[2]	–	–	–	–	1.5256 ± 0.0097	1.5172 ± 0.0097 and 1.5169 ± 0.0097	1.5141 ± 0.0096	1.5117 ± 0.0096

COc1ccccc1 [anisole] + Cc1ccccc1C
Settings	mass density, 288.15 K [kg/m3]	mass density, 293.15 K [kg/m3]	mass density, 298.15 K [kg/m3]	mass density, 303.15 K [kg/m3]	refractive index, 288.15 K	refractive index, 293.15 K	refractive index, 298.15 K	refractive index, 303.15 K
[3], x1 = 0.0984	–	–	–	–	1.5091 ± 0.0096	1.5061 ± 0.0096	1.5033 ± 0.0096	1.5015 ± 0.0096
[3], x1 = 0.2473	–	–	–	–	1.5118 ± 0.0096	1.508 ± 0.0096	1.5052 ± 0.0096	1.5027 ± 0.0096
[3], x1 = 0.376	–	–	–	–	1.5141 ± 0.0096	1.5095 ± 0.0096	1.5067 ± 0.0096	1.5048 ± 0.0096
[3], x1 = 0.4951	–	–	–	–	1.516 ± 0.0097	1.5107 ± 0.0096	1.5079 ± 0.0096	1.5059 ± 0.0096
[3], x1 = 0.6454	–	–	–	–	1.5193 ± 0.0097	1.5128 ± 0.0096	1.51 ± 0.0096	1.508 ± 0.0096
[3], x1 = 0.7463	–	–	–	–	1.521 ± 0.0097	1.5145 ± 0.0096	1.5117 ± 0.0096	1.5096 ± 0.0096
[3], x1 = 0.864	–	–	–	–	1.5232 ± 0.0097	1.5156 ± 0.0097	1.5128 ± 0.0096	1.5107 ± 0.0096
[3], x1 = 0.938	–	–	–	–	1.5245 ± 0.0097	1.5164 ± 0.0097	1.5136 ± 0.0096	1.5114 ± 0.0096
[3], x1 = 0.9745	–	–	–	–	1.5252 ± 0.0097	1.5167 ± 0.0097	1.5139 ± 0.0096	1.5116 ± 0.0096
[3], x1 = 1	–	–	–	–	1.5256 ± 0.0098	1.5169 ± 0.0097	1.5141 ± 0.0096	1.5117 ± 0.0096
[4], x1 = 0.0984	894.18 ± 0.86	890.01 ± 0.88	886.52 ± 0.89	881.84 ± 0.91	–	–	–	–
[4], x1 = 0.2473	910.8 ± 0.8	906.56 ± 0.81	902.92 ± 0.83	898.24 ± 0.84	–	–	–	–
[4], x1 = 0.376	925.35 ± 0.74	921 ± 0.76	917.17 ± 0.77	912.46 ± 0.79	–	–	–	–
[4], x1 = 0.4951	939.01 ± 0.69	934.55 ± 0.7	930.58 ± 0.72	925.89 ± 0.74	–	–	–	–
[4], x1 = 0.6454	956.51 ± 0.61	951.98 ± 0.63	947.89 ± 0.65	943.26 ± 0.67	–	–	–	–
[4], x1 = 0.7463	968.37 ± 0.57	963.81 ± 0.58	959.66 ± 0.6	955.11 ± 0.62	–	–	–	–
[4], x1 = 0.864	982.31 ± 0.51	977.72 ± 0.53	973.49 ± 0.54	968.92 ± 0.56	–	–	–	–
[4], x1 = 0.938	991.11 ± 0.47	986.44 ± 0.49	982.08 ± 0.51	977.48 ± 0.53	–	–	–	–
[4], x1 = 0.9745	995.42 ± 0.46	990.69 ± 0.48	986.24 ± 0.49	981.57 ± 0.51	–	–	–	–
[4], x1 = 1	998.44 ± 0.45	993.65 ± 0.46	989.15 ± 0.48	984.37 ± 0.5	–	–	–	–

COc1ccccc1 [anisole] + c1ccccc1
Settings	mass density, 288.15 K [kg/m3]	mass density, 293.15 K [kg/m3]	mass density, 298.15 K [kg/m3]	mass density, 303.15 K [kg/m3]	refractive index, 288.15 K	refractive index, 293.15 K	refractive index, 298.15 K	refractive index, 303.15 K
[3], x1 = 0.105	–	–	–	–	1.5076 ± 0.0096	1.5032 ± 0.0096	1.5001 ± 0.0097	1.4884 ± 0.0099
[3], x1 = 0.201	–	–	–	–	1.51 ± 0.0096	1.5051 ± 0.0096	1.5019 ± 0.0097	1.4914 ± 0.0098
[3], x1 = 0.3173	–	–	–	–	1.5127 ± 0.0097	1.5072 ± 0.0096	1.5041 ± 0.0097	1.4949 ± 0.0098
[3], x1 = 0.4192	–	–	–	–	1.5149 ± 0.0097	1.509 ± 0.0096	1.5058 ± 0.0097	1.4978 ± 0.0097
[3], x1 = 0.5126	–	–	–	–	1.5168 ± 0.0097	1.5105 ± 0.0096	1.5074 ± 0.0097	1.5003 ± 0.0097
[3], x1 = 0.6139	–	–	–	–	1.5188 ± 0.0097	1.5121 ± 0.0097	1.5089 ± 0.0096	1.5029 ± 0.0097
[3], x1 = 0.7067	–	–	–	–	1.5206 ± 0.0097	1.5134 ± 0.0097	1.5103 ± 0.0096	1.5052 ± 0.0097
[3], x1 = 0.797	–	–	–	–	1.5222 ± 0.0097	1.5147 ± 0.0097	1.5115 ± 0.0096	1.5073 ± 0.0096
[3], x1 = 0.9002	–	–	–	–	1.524 ± 0.0097	1.516 ± 0.0097	1.5129 ± 0.0096	1.5096 ± 0.0096
[3], x1 = 1	–	–	–	–	1.5256 ± 0.0097	1.5172 ± 0.0097	1.5141 ± 0.0096	1.5117 ± 0.0096
[4], x1 = 0.105	898.53 ± 3	891.31 ± 3.1	888.2 ± 3.1	882.91 ± 3.2	–	–	–	–
[4], x1 = 0.201	911.14 ± 2.8	904.23 ± 2.9	900.97 ± 2.9	895.75 ± 3	–	–	–	–
[4], x1 = 0.3173	925.73 ± 2.5	919.17 ± 2.6	915.76 ± 2.7	910.6 ± 2.8	–	–	–	–
[4], x1 = 0.4192	937.94 ± 2.4	931.66 ± 2.5	928.1 ± 2.5	923 ± 2.6	–	–	–	–
[4], x1 = 0.5126	948.66 ± 2.2	942.64 ± 2.3	938.93 ± 2.3	933.89 ± 2.4	–	–	–	–
[4], x1 = 0.6139	959.83 ± 2	954.08 ± 2.1	950.21 ± 2.2	945.24 ± 2.2	–	–	–	–
[4], x1 = 0.7067	969.67 ± 1.9	964.17 ± 1.9	960.12 ± 2	955.22 ± 2.1	–	–	–	–
[4], x1 = 0.797	978.88 ± 1.7	973.61 ± 1.8	969.41 ± 1.9	964.57 ± 1.9	–	–	–	–
[4], x1 = 0.9002	989.01 ± 1.6	983.99 ± 1.6	979.62 ± 1.7	974.85 ± 1.8	–	–	–	–
[4], x1 = 1	998.44 ± 1.4	993.65 ± 1.5	989.15 ± 1.6	984.37 ± 1.6	–	–	–	–

c1ccccc1 [benzene]
Settings	mass density, 288.15 K [kg/m3]	mass density, 293.15 K [kg/m3]	mass density, 298.15 K [kg/m3]	mass density, 303.15 K [kg/m3]	refractive index, 288.15 K	refractive index, 293.15 K	refractive index, 298.15 K	refractive index, 303.15 K
[1]	884.11 ± 3.2	876.53 ± 3.3	873.6 ± 3.4	868.23 ± 3.5	–	–	–	–
[2]	–	–	–	–	1.505 ± 0.0096	1.5011 ± 0.0096	1.4979 ± 0.0097	1.4849 ± 0.0099

c1ccccc1 [benzene] + COc1ccccc1
x2 = 0
Settings	mass density, 288.15 K [kg/m3]	mass density, 293.15 K [kg/m3]	mass density, 298.15 K [kg/m3]	mass density, 303.15 K [kg/m3]	refractive index, 288.15 K	refractive index, 293.15 K	refractive index, 298.15 K	refractive index, 303.15 K
[3]	–	–	–	–	1.505 ± 0.0096	1.5011 ± 0.0096	1.4979 ± 0.0097	1.4849 ± 0.0099
[4]	884.11 ± 3.2	876.53 ± 3.3	873.6 ± 3.4	868.23 ± 3.5	–	–	–	–

Cc1ccccc1 [toluene]
Settings	mass density, 288.15 K [kg/m3]	mass density, 293.15 K [kg/m3]	mass density, 298.15 K [kg/m3]	mass density, 303.15 K [kg/m3]	refractive index, 288.15 K	refractive index, 293.15 K	refractive index, 298.15 K	refractive index, 303.15 K
[1]	871.41 ± 0.84	866.87 ± 0.86	862.2 ± 0.88	857.46 ± 0.9	–	–	–	–
[2]	–	–	–	–	1.4996 ± 0.0096	1.497 ± 0.0096	1.4944 ± 0.0096	1.4918 ± 0.0096

Cc1ccccc1 [toluene] + COc1ccccc1
x2 = 0
Settings	mass density, 288.15 K [kg/m3]	mass density, 293.15 K [kg/m3]	mass density, 298.15 K [kg/m3]	mass density, 303.15 K [kg/m3]	refractive index, 288.15 K	refractive index, 293.15 K	refractive index, 298.15 K	refractive index, 303.15 K
[3]	–	–	–	–	1.4996 ± 0.0096	1.497 ± 0.0096	1.4944 ± 0.0096	1.4918 ± 0.0096
[4]	871.41 ± 0.84	866.87 ± 0.86	862.2 ± 0.88	857.46 ± 0.9	–	–	–	–
